This is an account of results in patent publication US11840497B2, “4-(p-quinonyl)-2-hydroxybutanamide derivatives for treatment of mitochondrial diseases” (PTC Therapeutics, Inc., priority 2007, dated 2023).

pEC50: −log10 of the molar value.

Holding throughout (assay type): cell-based
Assay [1] deals with Human dermal fibroblasts from Friedreich's Ataxia patients. Put plainly: Rescue of BSO-stressed FRDA fibroblasts (Example A). The following applies: FRDA fibroblasts GM04078, 1 mM BSO, read-out: protection against FRDA, EC50. Here is the method:
Test samples, 4 reference compounds (idebenone, decylubiquinone, Trolox and α-tocopherol acetate), and solvent controls were tested for their ability to rescue FRDA fibroblasts stressed by addition of L-buthionine (S,R)-sulfoximine (BSO), as described in Jauslin et al., Hum. Mol. Genet. […] Mol. Genet. […] This specific BSO-mediated cell death can be prevented by administration of antioxidants or molecules involved in the antioxidant pathway, such as α-tocopherol, selenium, or small molecule glutathione peroxidase mimetics. However, antioxidants differ in their potency, i.e. the concentration at which they are able to rescue BSO-stressed FRDA fibroblasts.
Fetal Calf Serum was obtained from PAA Laboratories. Basic fibroblast growth factor and epidermal growth factor were purchased from PeproTech. Penicillin-streptomycin-glutamine mix, L-buthionine (S,R)-sulfoximine, (+)-α-tocopherol acetate, decylubiquinone, and insulin from bovine pancreas were purchased from Sigma. Trolox (6-Hydroxy-2,5,7,8-tetramethylchroman-2-carboxylic acid) was obtained from Fluka. Idebenone was obtained from Chemo Iberica. Calcein AM was purchased from Molecular Probes. Cell culture medium was made by combining 125 ml M199 EBS, 50 ml Fetal Calf Serum, 100 U/ml penicillin, 100 μg/ml streptomycin, 2 mM glutamine, 10 μg/ml insulin, 10 ng/ml EGF, and 10 ng/ml bFGF; MEM EBS was added to make the volume up to 500 ml. […] During the course of the experiments, this solution was stored at +4° C. The cells were obtained from the Coriell Cell Repositories (Camden, NJ; repository number GM04078) and grown in 10 cm tissue culture plates. Every third day, they were split at a 1:3 ratio.
The test samples were supplied in 1.5 ml glass vials. […] Once dissolved, they were stored at −20° C. Reference antioxidants (idebenone, decylubiquinone, α-tocopherol acetate and trolox) were dissolved in DMSO.
Test samples were screened according to the following protocol: A culture with FRDA fibroblasts was started from a 1 ml vial with approximately 500,000 cells stored in liquid nitrogen. […] Once confluent, fibroblasts were harvested. […] The remaining cells were distributed in 10 cm cell culture plates (500,000 cells/plate) for propagation. The plates were incubated overnight at 37° C. in a atmosphere with 95% humidity and 5% CO2 to allow attachment of the cells to the culture plate.
MTP medium (243 μl) was added to a well of the microtiter plate. […] Serial dilutions from the master solution were made. The period between the single dilution steps was kept as short as possible (generally less than 1 second).
Plates were kept overnight in the cell culture incubator. The next day, 10 μl of a 10 mM BSO solution were added to the wells, resulting in a 1 mM final BSO concentration. Forty-eight hours later, three plates were examined under a phase-contrast microscope to verify that the cells in the 0% control (wells E1-H1) were clearly dead. The medium from all plates was discarded, and the remaining liquid was removed by gently tapping the plate inversed onto a paper towel.
The plates were incubated for 50-70 minutes at room temperature. After that time the PBS was discarded, the plate gently tapped on a paper towel and fluorescence (excitation/emission wavelengths of 485 nm and 525 nm, respectively) was read on a Gemini fluorescence reader. Data was imported into Microsoft Excel (EXCEL is a registered trademark of Microsoft Corporation for a spreadsheet program) and used to calculate the EC50 concentration for each compound.
The compounds were tested three times, i.e., the experiment was performed three times, the passage number of the cells increasing by one with every repetition.
The viability of non-BSO treated fibroblasts was set as 100%, and the viability of the BSO- and compound-treated cells was calculated as relative to this value.

Assay [2] concerns human dermal fibroblasts from CoQ10 deficient patients. In words: Rescue of stressed fibroblasts from CoQ10 deficient patients (Example E). The conditions noted are these: Fibroblast, fibroblasts harboring a CoQ2 mutation, screen similar to Example A, read-out: protection against CoQ10 deficiency, EC50. The method, then: Compounds of the invention were tested using a screen similar to the one described in Example A, but substituting FRDA cells with cells obtained from CoQ10 deficient patients harboring a CoQ2 mutation.

Assay [3] deals with human dermal fibroblasts from LHON patients. Put plainly: Rescue of BSO-stressed fibroblasts from LHON patients (Example C). The following applies: Fibroblast, LHON fibroblasts GM03858, screen as Example A, read-out: protection against LHON, EC50. Here is the method:
The compounds were tested for their ability to rescue human dermal fibroblasts from LHON patients from oxidative stress.

Assay [4] has as its system human dermal fibroblasts from Huntington's patients. Put plainly: Rescue of BSO-stressed fibroblasts from Huntington's patients (Example B). The following applies: Fibroblast, Huntington's fibroblasts GM 04281, screen as Example A, read-out: protection against Hungtington's, EC50. Here is the method:
The compounds were tested for their ability to rescue human dermal fibroblasts from Huntington's patients from oxidative stress.

A word on the pEC50: it is the negative decadic logarithm of the EC50, by convention in mol/L. For `CC1=C(C)C(=O)C(CCC(C)(O)C(=O)N2CCNCC2)=C(C)C1=O` (stereo not shown) [2-(3-hydroxy-3-methyl-4-oxo-4-(piperazin-1-yl)butyl)-3,5,6-trimethylcyclohexa-2,5-diene-1,4-dione], the negative logarithm of the EC50 (pEC50) in assay [1] and in assay [2] was above 7.00 throughout.

As for `CC(=O)N1CCN(C(=O)C(C)(O)CCC2=C(C)C(=O)C(C)=C(C)C2=O)CC1` (stereo not shown) [2-(4-(4-acetylpiperazin-1-yl)-3-hydroxy-3-methyl-4-oxobutyl)-3,5,6-trimethylcyclohexa-2,5-diene-1,4-dione], the negative logarithm of the EC50 (pEC50) in assay [1], in assay [3], in assay [2] and in assay [4] was above 7.00 each time.

As for `CC1=C(C)C(=O)C(CCC(C)(O)C(=O)NCc2cccnc2)=C(C)C1=O` (stereo not shown) [2-hydroxy-2-methyl-N-(pyridin-3-ylmethyl)-4-(2,4,5-trimethyl-3,6-dioxocyclohexa-1,4-dienyl)butanamide], the pEC50 in assay [3] and in assay [2] was above 7.00 throughout.

On to `CC1=C(C)C(=O)C(CC[C@](C)(O)C(N)=O)=C(C)C1=O` [(S)-2-hydroxy-2-methyl-4-(2,4,5-trimethyl-3,6-dioxocyclohexa-1,4-dienyl)butanamide], for which the pEC50 in assay [1], in assay [3], in assay [2] and in assay [4] was above 7.00 each time.

For the compound `CC1=C(C)C(=O)C(CCC(C)(O)C(=O)NCCCO)=C(C)C1=O` (stereo not shown) [Example 9, 2-Hydroxy-N-(3-hydroxypropyl)-2-methyl-4-(2,4,5-trimethyl-3,6-dioxocyclohexa-1,4-dienyl)butanamide], the negative logarithm of the EC50 (pEC50) in assay [1], in assay [3] and in assay [4] was above 7.00 each time.

For the compound `CC1=C(C)C(=O)C(CCC(C)(O)C(N)=O)=C(C)C1=O` (stereo not shown) [Example 16, 2-Hydroxy-2-methyl-4-(2,4,5-trimethyl-3,6-dioxocyclohexa-1,4-dienyl)butanamide], the negative logarithm of the EC50 (pEC50) in assay [1], in assay [3], in assay [2] and in assay [4] was above 7.00 throughout.

On to `CC1=C(C)C(=O)C(CCC(C)(O)C(=O)NCCCCO)=C(C)C1=O` (stereo not shown) [Example 17, 2-Hydroxy-N-(4-hydroxybutyl)-2-methyl-4-(2,4,5-trimethyl-3,6-dioxocyclohexa-1,4-dienyl)butanamide], for which the pEC50 in assay [1], in assay [3] and in assay [4] was above 7.00 in each case.

With `CC1=C(C)C(=O)C(CCC(C)(O)C(=O)NC(C)CO)=C(C)C1=O` (stereo not shown) [Example 19, 2-Hydroxy-N-(1-hydroxypropan-2-yl)-2-methyl-4-(2,4,5-trimethyl-3,6-dioxocyclohexa-1,4-dienyl)butanamide], the pEC50 in assay [1], in assay [3] and in assay [4] was above 7.00 throughout.

On to `CCCCCCNC(=O)C(C)(O)CCC1=C(C)C(=O)C(C)=C(C)C1=O` (stereo not shown) [Example 43, N-hexyl-2-hydroxy-2-methyl-4-(2,4,5-trimethyl-3,6-dioxocyclohexa-1,4-dienyl)butanamide], for which the pEC50 in assay [3] and in assay [2] was above 7.00 throughout.

`CC1=C(C)C(=O)C(CCC(C)(O)C(=O)NCc2ccccc2Cl)=C(C)C1=O` (stereo not shown) [N-(2-chlorobenzyl)-2-hydroxy-2-methyl-4-(2,4,5-trimethyl-3,6-dioxocyclohexa-1,4-dienyl)butanamide]: the pEC50 in assay [1], in assay [3] and in assay [4] was above 7.00 each time.

Consider `CC1=C(C)C(=O)C(CCC(C)(O)C(=O)NCCc2ccccc2Cl)=C(C)C1=O` (stereo not shown) [N-(2-chlorophenethyl)-2-hydroxy-2-methyl-4-(2,4,5-trimethyl-3,6-dioxocyclohexa-1,4-dienyl)butanamide], for which the pEC50 in assay [1] and in assay [2] was above 7.00 each time.

For `CC1=C(C)C(=O)C(CCC(C)(O)C(=O)NCc2ccccc2F)=C(C)C1=O` (stereo not shown) [N-(2-fluorobenzyl)-2-hydroxy-2-methyl-4-(2,4,5-trimethyl-3,6-dioxocyclohexa-1,4-dienyl)butanamide], the pEC50 in assay [1], in assay [3] and in assay [4] was above 7.00 in each case.

`CC1=C(C)C(=O)C(CCC(C)(O)C(=O)NCc2cccc(Cl)c2)=C(C)C1=O` (stereo not shown) [N-(3-chlorobenzyl)-2-hydroxy-2-methyl-4-(2,4,5-trimethyl-3,6-dioxocyclohexa-1,4-dienyl)butanamide]: the pEC50 in assay [1], in assay [3] and in assay [4] was above 7.00 throughout.

Regarding `CC1=C(C)C(=O)C(CCC(C)(O)C(=O)NCCc2cccc(Cl)c2)=C(C)C1=O` (stereo not shown) [N-(3-chlorophenethyl)-2-hydroxy-2-methyl-4-(2,4,5-trimethyl-3,6-dioxocyclohexa-1,4-dienyl)butanamide], the negative logarithm of the EC50 (pEC50) in assay [1], in assay [3] and in assay [4] was above 7.00 in each case.

For the compound `CC1=C(C)C(=O)C(CCC(C)(O)C(=O)NCc2cccc(F)c2)=C(C)C1=O` (stereo not shown) [N-(3-fluorobenzyl)-2-hydroxy-2-methyl-4-(2,4,5-trimethyl-3,6-dioxocyclohexa-1,4-dienyl)butanamide], the pEC50 in assay [1], in assay [3] and in assay [4] was above 7.00 in each case.

`CC1=C(C)C(=O)C(CCC(C)(O)C(=O)NCc2ccc(Cl)cc2)=C(C)C1=O` (stereo not shown) [N-(4-chlorobenzyl)-2-hydroxy-2-methyl-4-(2,4,5-trimethyl-3,6-dioxocyclohexa-1,4-dienyl)butanamide]: the pEC50 in assay [1], in assay [3] and in assay [4] was above 7.00 in each case.

For the compound `CC1=C(C)C(=O)C(CCC(C)(O)C(=O)NCCc2ccc(Cl)cc2)=C(C)C1=O` (stereo not shown) [N-(4-chlorophenethyl)-2-hydroxy-2-methyl-4-(2,4,5-trimethyl-3,6-dioxocyclohexa-1,4-dienyl)butanamide], the pEC50 in assay [1], in assay [3], in assay [2] and in assay [4] was above 7.00 in each case.

For the compound `CC1=C(C)C(=O)C(CCC(C)(O)C(=O)Nc2ccc(Cl)cc2)=C(C)C1=O` (stereo not shown) [N-(4-chlorophenyl)-2-hydroxy-2-methyl-4-(2,4,5-trimethyl-3,6-dioxocyclohexa-1,4-dienyl)butanamide], the pEC50 in assay [1], in assay [3] and in assay [4] was above 7.00 each time.

Consider `CC1=C(C)C(=O)C(CCC(C)(O)C(=O)NCc2ccc(F)cc2)=C(C)C1=O` (stereo not shown) [N-(4-fluorobenzyl)-2-hydroxy-2-methyl-4-(2,4,5-trimethyl-3,6-dioxocyclohexa-1,4-dienyl)butanamide], for which the pEC50 in assay [1], in assay [3] and in assay [4] was above 7.00 each time.

As for `CC1=C(C)C(=O)C(CCC(C)(O)C(=O)NCCc2ccc(F)cc2)=C(C)C1=O` (stereo not shown) [N-(4-fluorophenethyl)-2-hydroxy-2-methyl-4-(2,4,5-trimethyl-3,6-dioxocyclohexa-1,4-dienyl)butanamide], the pEC50 in assay [1], in assay [3] and in assay [4] was above 7.00 in each case.

Turning to `CC1=C(C)C(=O)C(CCC(C)(O)C(=O)N2CCN(C(=O)OC(C)(C)C)CC2)=C(C)C1=O` (stereo not shown) [tert-butyl 4-(2-hydroxy-2-methyl-4-(2,4,5-trimethyl-3,6-dioxocyclohexa-1,4-dienyl)butanoyl)piperazine-1-carboxylate], the negative-log EC50 (pEC50) in assay [2] is above 7.00.
